Experimental data: US20230092389A1, “UNIT DOSES, AEROSOLS, KITS, AND METHODS FOR TREATING HEART CONDITIONS BY PULMONARY ADMINISTRATION” (InCarda Therapeutics, Inc., priority 2017, published 2023)
Values joined by “and” are separate entries in the source; they are usually repeats but may differ in a detail not shown here. Identical values can stand only once. Like-named read-outs stand apart in the source and are kept apart here.

Assays:
[1] = in vivo
Text: (§1) 3 cohorts of subjects, in total 34 healthy adult volunteers, were recruited for Part A study.
(§2) Part B was an open label non-randomized crossover in a cohort of 6 evaluable healthy adult volunteers.

[2] = tested on: porcine model; experiment: Slow versus rapid IV infusion, porcine model; type: in vivo, pig; conditions: slow (10 min) vs rapid (2 min) IV infusion
[3] = tested on: dogs with induced atrial fibrillation; type: in vivo, dog
Experimental: Atrial Fibrillation Model: A venous catheter was placed in a peripheral vessel (i.e., cephalic) for administration of anesthetic. […] Following induction, animals were endotracheally intubated and mechanically ventilated (˜12 breaths/minute with a tidal volume of 200-300 mL). Subsequently, a cut-down on a jugular vein permitted introduction of a pacing lead into the right atrium. Transthoracic electrodes forming ECG lead II were placed. For test/vehicle article delivery, a 4F catheter was introduced through the trachea and wedged into a small airway, and a venous catheter was placed in a peripheral vessel (i.e., cephalic). […] Approximately 5 min after administration of this parasympathomimetic was started; the following experiments were performed: […] Observations were made for up to 10 minutes. […] Vehicle was only water.

[4] = tested on: beagle dogs with induced AF; experiment: Cardioversion of induced AF by IT or IV flecainide, anesthetized dogs (Example 7); type: in vivo; conditions: for Time to NSR, individual animals: cumulative dose 0.75-1.0 mg/kg, animals 001-006
Experimental: The study was carried out in anesthetized healthy adult beagle dogs with induced AF. Acute AF was induced using the combination of phenylephrine ([…]), to increase heterogeneity of atrial refractory periods via increased loading and through a baroreceptor-mediated increase in parasympathetic efferent activity, and right atrial burst pacing (40-50 Hz for ˜15 min). The AF induced using this method was, in general, stable for more than 30 mins.
The cardiac rhythm was monitored prior to, during AF, and up to 10 min post-dosing and/or until conversion to NSR.

[5] = tested on: anesthetized Yorkshire pigs; experiment: PD (hemodynamics, ECG intervals) after IV or IT in anesthetized pigs (Example 5); type: in vivo
Experimental: All catheters were positioned under fluoroscopic guidance. […] Data are reported as means±SEM. Statistical analyses were performed using the SAS system (9.4) to apply ANOVA with a post-hoc Dunnett's test. Statistical significance was assumed at p<0.05.

[6] = clinical; conditions: human, in vivo; for Tmax: Tmax (min after EOI)
Text: as §1, §2

[7] = male, Yorkshire, pig, in vivo, iv, 2 mg/kg
Experimental: The studies were carried out in male Yorkshire pigs (n=9) weighing 36±1.0 kg (mean±SEM). The pigs were pre-anesthetized with telazol (4.7 mg/kg, intramuscular) and subsequently further anesthetized using alpha-chloralose (80 mg/kg, IV bolus, followed by 24 mg/kg/h continuous IV infusion). The animals were intubated and ventilated at a constant rate of 12 breaths/min and tidal volume of 400 ml per stroke.
Simultaneous blood samples were drawn from the pigtail catheter positioned in the LV and from a catheter in the jugular vein.
The samples were centrifuged and frozen at −80° C. until drug level determination was performed using a bioanalytical assay method developed by Climax Laboratories, Inc.

[8] = beagle, dog, in vivo
Text: After induction of AF, animals were first given vehicle (0.9% NaCl, volume-matched) via IT installation.

[9] = both, human, inhaled or intranasal, 20 mg
[10] = both, human, inhaled or intranasal, 40 mg
[11] = both, human, inhaled or intranasal, 60 mg
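Throughout, for Cmax of the two excluded subjects: measured in healthy adult volunteers.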
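Throughout, for Dist. t1/2α: measured in healthy adult volunteers.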
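Throughout, for Elim. t1/2β: measured in healthy adult volunteers.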
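Throughout, for Tmax (min after EOI): measured in healthy adult volunteers.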
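Throughout, for Tmax in excluded subjects: measured in healthy adult volunteers.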
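Throughout, for Tmax: measured in healthy adult volunteers.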
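Throughout, for concentration-time profile curves, IV normalized to 30 mg vs inhaled 30 mg eTLD: measured in healthy adult volunteers.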
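Throughout, for dose dependence of Cmax and AUCLast: measured in healthy adult volunteers.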
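Throughout, for dose dependence of distribution phase and elimination half-life: measured in healthy adult volunteers.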
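Throughout, for dose proportionality of venous plasma concentrations: measured in healthy adult volunteers.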
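Throughout, for elimination t1/2β: measured in healthy adult volunteers.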
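Throughout, for plasma concentration in subjects with near-equal ΔQRS (12.0 to 16 msec): measured in healthy adult volunteers.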
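Throughout, for venous plasma concentration-time curves, inhaled vs IV: measured in healthy adult volunteers.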

SMILES: O=C(NCC1CCCCN1)c1cc(OCC(F)(F)F)ccc1OCC(F)(F)F (stereo not shown) [flecainide]
- elimination t1/2β ([1]; both, human): 540 to 720 min
- Cmax of the two excluded subjects ([1]; both, human, 40 mg): 43.5 ng/mL
- Cmax of the two excluded subjects ([1]; both, human, 60 mg): 51.3 ng/mL
- Tmax in excluded subjects ([1]; both, human, 60 mg): greater than 15 minutes
- Dist. t1/2α [1, 9]: 3.86 (34) min
- Elim. t1/2β [1, 9]: 9.87 (25) hours
- Dist. t1/2α [1, 10]: 4.19 (39) min
- Elim. t1/2β [1, 10]: 9.0 (24) hours
- Dist. t1/2α [1, 11]: 3.47 (17) min
- Elim. t1/2β [1, 11]: 12.0 (14) hours
- dose dependence of Cmax and AUCLast ([1]; human): dose-dependent
- dose dependence of distribution phase and elimination half-life ([1]; human): independent of the doses
- plasma concentration in subjects with near-equal ΔQRS (12.0 to 16 msec) ([1]; human): 85 ± 40.3 ng/mL
- Tmax (min after EOI) ([1]; human, inhaled or intranasal, 30 mg): 0.5 (0, 1) min
- plasma concentration in subjects with near-equal ΔQRS (12.0 to 16 msec) ([1]; human, iv): 222 ± 23 ng/mL
- Tmax (min after EOI) ([1]; human, iv, 2 mg/kg): 1 (0, 60) min
- dose proportionality of venous plasma concentrations [1]: near dose proportionality
- venous plasma concentration-time curves, inhaled vs IV ([1]; 2 mg/kg): similar
- concentration-time profile curves, IV normalized to 30 mg vs inhaled 30 mg eTLD ([1]; iv): near-identical
- pH of solution in water (2.6 mg/mL solution): 5.0
- appearance of solution (diltiazem hydrochloride 50 mg/ml, flecainide acetate 30 mg/ml in distilled water): clear with no visible particulate matter
- correlation of venous plasma levels with QRS duration [2]: positively correlated with QRS duration
- ECG trace: Afib conversion ([3]; 2 mg/kg (FIG. 12)): Afib converting as soon as dosing occurred
- ECG trace: Afib conversion ([3]; 4 mg/kg by intra-tracheal instillation (FIG. 11)): Afib converting into normal sinus rhythm
- ventricular rate ([3]; large pulmonary doses): slower ventricular rates
- effect on induced atrial fibrillation ([3]; pulmonary (IT) administration): rapidly converted the Atrial Fibrillation to normal sinus rhythm
- conversion of induced atrial fibrillation to normal sinus rhythm ([3]; pulmonary dose 2-4 mg/kg body weight): converted the induced atrial fibrillation to normal sinus rhythm
- cardiovascular effect when given by intratracheal instillation ([3]; summary of Example 2): clear cardiovascular effect
- effects in BP, VR and LV dP/dtmax upon conversion, IV vs IT ([4]; FIG. 69): Flecainide given IV caused greater effects
- dogs converted from AF to NSR ([4]; IT): 6/6
- representative ECG: conversion of AF to NSR ([4]; IT 0.75 mg/kg (FIGS. 68A-D)): conversion of AF to NSR
- Time to NSR, individual animals ([4]; IT, cumulative IT dose 0.75 mg/kg): 12 s and 23 s and 62 s
- Time to NSR, individual animals ([4]; IT, cumulative IT dose 0.75 (0.25 + 0.5) mg/kg): 147 s and 52 s
- Time to NSR, individual animals ([4]; IT, cumulative IT dose 1.0 (0.75 + 0.25) mg/kg): 83 s
- Time to NSR, Mean ± SEM ([4]; IT, mean dose 0.79 ± 0.04 mg/kg, 6 dogs, 0.04 mg/kg): 63 ± 18 s
- dogs converted from AF to NSR ([4]; IV bolus): 2/2
- time to conversion of AF to NSR ([4]; IV bolus): 29 s
- sufficiency of LV (left atrium) levels to terminate AF ([4]; pulmonary delivery): sufficient to rapidly terminate AF
- QRS duration ([5]; IT 0.75 mg/kg, 2 min, baseline 58±1.8 ms): 64 ± 1.6 ms
- QRS duration ([5]; IT 0.75 mg/kg, 5 min, baseline 58±1.8 ms): 65 ± 1.7 ms
- QRS duration ([5]; IT 0.75 mg/kg, 30 min): 58 ± 0.9 ms
- mean arterial pressure ([5]; IT 0.75 mg/kg, baseline 111±3.6 mmHg, p=0.9112): not significantly altered across 30 min
- heart rate ([5]; IT 0.75 mg/kg, baseline 111±6.4 bpm, p=0.9970): not significantly altered across 30 min
- PR interval ([5]; IT 0.75 mg/kg, baseline 130±5.3 ms, p=0.9351): not significantly changed across 30 min
- JTc interval ([5]; IT 0.75 mg/kg, baseline 354±12.0 ms, p=0.7605): not significantly changed across 30 min
- QTc interval ([5]; IT 0.75 mg/kg, baseline 435±12.9 ms, p=0.5505): not significantly changed across 30 min
- QRS duration ([5]; IT 1.5 mg/kg, 2 min, baseline 57±0.4 ms): 68 ± 1.9 ms
- QRS duration ([5]; IT 1.5 mg/kg, 5 min): 69 ± 2.2 ms
- QRS duration ([5]; IT 1.5 mg/kg, 10 min): 67 ± 1.7 ms
- QRS duration ([5]; IT 1.5 mg/kg, 15 min): 64 ± 1.3 ms
- QRS duration ([5]; IT 1.5 mg/kg, 30 min): 60 ± 0.9 ms
- mean arterial pressure ([5]; IT 1.5 mg/kg, baseline 108±9.4 mmHg, p=0.9894): not significantly altered across 30 min
- heart rate ([5]; IT 1.5 mg/kg, baseline 118±13.2 bpm, p=0.9999): not significantly altered across 30 min
- PR interval ([5]; IT 1.5 mg/kg, baseline 127±2.3 ms, p=0.0819): not significantly changed across 30 min
- JTc interval ([5]; IT 1.5 mg/kg, baseline 364±11.5 ms, p=0.9968): not significantly changed across 30 min
- QTc interval ([5]; IT 1.5 mg/kg, baseline 436±7.1 ms, p=0.1510): not significantly changed across 30 min
- heart rate ([5]; IV 2 mg/kg over 2 min, baseline 103±1.9 bpm, p=0.9936): not significantly altered across 30 min
- QRS duration ([5]; IV 2 mg/kg, 2 min, baseline 58±1.9 ms): 77 ± 6.2 ms
- QRS duration ([5]; IV 2 mg/kg, 5 min, baseline 58±1.9 ms): 76 ± 4.8 ms
- QRS duration ([5]; IV 2 mg/kg, 30 min): 59 ± 3.0 ms
- mean arterial pressure ([5]; IV 2 mg/kg, baseline 105±6.7 mmHg, p=0.8852): not significantly altered across 30 min
- PR interval ([5]; IV 2 mg/kg, baseline 127±7.8 ms, p=0.5161): not significantly changed across 30 min
- JTc interval ([5]; IV 2 mg/kg, baseline 367±7.4 ms, p=0.9686): not significantly changed across 30 min
- QTc interval ([5]; IV 2 mg/kg, baseline 442±7.9 ms, p=0.35): not significantly changed across 30 min
- half-life ([6]; both): 3.5 to 4.2 min
- half-life ([6]; inhaled or intranasal, 30 mg): 4.67 min
- Tmax ([6]; inhaled or intranasal, 30 mg): ≤ 1 min
- half-life ([6]; iv, 2 mg/kg): 4.28 min
- Tmax ([6]; iv, 2 mg/kg): 1 to 60 min
- time of peak LV and venous plasma levels [7]: 2 min
- Plasma Concentration LV at time of conversion, Mean ± SEM [8]: 1139 ± 380 ng/mL
- Plasma Concentration Venous at time of conversion, Mean ± SEM [8]: 611 ± 213 ng/mL
- plasma concentrations transiently higher in LV than in PA (summary) [8]: ~2.5 fold
- plasma levels higher in LV than in systemic venous circulation [8]: ~2 fold
- plasma concentrations transiently higher in PA than in LV (summary) ([8]; iv): ~3.5 fold
- time after administration when LV and PA concentrations were nearly equal ([8]; iv): 4 to 10 min
